In patent US9199959B2, “HIV replication inhibitor” (Shionogi & Co., Ltd., priority 2011, dated 2015):

Legend:
HIV (HTLV-III B strain) = assay: HIV replication inhibition assay (MTT, MT-4 cells); assay type: cell-based; conditions: Human immunodeficiency virus 1, MT4, 96 h, four days culture, concentration at which cell cytotoxicity by virus is inhibited 50%
Method: HIV (HTLV-III B strain) persistent infected human T cell strain Molt-4 clone 8 was cultured in 10% Fetal Bovine Serum-containing RPMI-1640 medium and the supernatant was filtrated, then the virus titer was measured and the solution was stored at −80° C. Each anti-human immunodeficiency virus active substance was diluted with the above cultured medium to the designated concentration, which was dispensed into 96 well micro plate by 50 μL. Next, a MT-4 cell suspended liquid was dispensed by 100 μL (2.5×10^4 cells), then the above HIV-containing supernatant diluted with the above cultured medium was added thereto by 50 μL (60 pfu (plaque forming unit)).
The obtained mixture was cultured at 37° C. in CO2 incubator for four days, then 3-(4,5-dimehylthiazole-2-yl)-2,5-diphenyltetrazolynium bromide (MTT) 5 mg/mL in PBS was added to each well by 30 μL, followed by 1 hr-cultivation. In this step, as formazan was precipitated by reduction of MTT in living cells, the cell supernatant was removed from all well by 150 μL, then a 150 μL of solution (10% Triton X-100 and […]) was added thereto, followed by shaking with a plate mixer, to elute formazan. The formazan was measured with a microreader at OD: 560 nm and 690 nm (wavelength) and the result was compared with the reference. EC50 means the compound concentration at which cell cytotoxicity by virus is inhibited 50%.

[1] = system: Salmonella typhimurium TA98 strain, TA100 strain; assay type: cell-based; conditions: Salmonella typhimurium TA98, TA100, non-metabolism and metabolism activating condition
Method: The mutagenicity of the compound of the present invention was assayed.
20 μL of freezing-stored rat typhoid bacillus (Salmonella typhimurium TA98 strain, TA100 strain) was inoculated on 10 mL of a liquid nutrient medium (2.5% Oxoid nutrient broth No. 2), and this was cultured before shaking at 37° C. for 10 hours. 9 mL of a bacterial solution of the TA98 strain was centrifuged (2000×g, 10 minutes) to remove a culturing solution. The bacteria was suspended in F buffer (K2HPO4: 3.5 g/L, KH2PO4: 1 g/L, (NH4)2SO4: 1 g/L, trisodium citrate dehydrate: 0.25 g/L, MgSO4.7H2O: 0.1 g/L), and the suspension was added to 110 mL of an Exposure medium (Micro F buffer containing Biotin: 8 μg/mL, histidine: 0.2 μg/mL, glucose: 8 mg/mL). The TA100 strain was added to 120 mL of the Exposure medium per 3.16 mL of the bacterial solution to prepare a test bacterial solution. […] of a test substance DMSO solution (several stage dilution from maximum dose 50 mg/mL at 2- to 3-fold ratio), DMSO as a negative control, 50 μg/mL of 4-nitroquinoline-1-oxide DMSO solution for the TA98 strain, 0.25 μg/mL of 2-(2-furyl)-3-(5-nitro-2-furyl)acrylamide DMSO solution for the TA100 strain each under the non-metabolism activating condition, 40 μg/mL of 2-aminoanthracene DMSO solution for the TA98 strain, 20 μg/mL of 2-aminoanthracene DMSO solution for the TA100 strain each under the metabolism activating condition all as a positive control, and 588 μL of the test bacterial solution (a mixed solution of 498 μL of the test bacterial solution and 90 μL of S9 mix under the metabolism activating condition) were mixed, and this was shaking-cultured at 37° C. for 90 minutes. […] Since a well containing a bacterium which has obtained the proliferation ability by mutation of an amino acid (histidine) synthesizing enzyme gene turns from purple to yellow due to a pH change, the bacterium proliferation well which has turned to yellow in 48 wells per dose is counted, and was assessed by comparing with a negative control group. […]

SMILES	EC50 (HIV (HTLV-III B strain))	mutagenicity [1]
CCNC(=O)Nc1c(C)c(C(OC(C)(C)C)C(=O)O)c(-c2ccc(C)c(C)c2)c(C)c1-c1ccc(C)c(C)c1 (stereo not shown) [Compound I-11]	21 nM	negative
Cc1ccc(-c2c(C)c(-c3ccc(C)c(C)c3)c(C(OC(C)(C)C)C(=O)O)c(C)c2NS(C)(=O)=O)cc1C (stereo not shown) [Compound I-12]	6.4 nM	negative
